Data: patent US6485929B1, “Method for inhibiting CD95-independent apoptosis in AIDS” (Deutsches Krebsforschungzentrum Stiftung des offentlichen …, priority 1998, dated 2002)

Tested on: HPB-ALL cells
Assay: Inhibition of CD95-independent apoptosis induced by anti-CXCR4 antibody (12G5) in HPB-ALL cells
Assay type: cell-based
Conditions: HPB-ALL cells incubated with 250 nM SDF-1α at 37° C. for 30 minutes, then induction with anti-CXCR4 antibody 12G5
Experimental: 1×10^5 HPB-ALL cells are incubated with 5 μg/ml mouse anti-CD4 antibody (HP2/6) and mouse anti CXCR4 antibody (12G5), respectively, at 37° C. for 15 minutes. Then, the bound antibodies are reacted with sheep anti-mouse antibodies (100 μg/ml, Boehringer). Apoptosis detection is carried out in which an FSC/SSC analysis is run in an FACScan cytometer at various times (cf. FIG. 1). HPB-ALL cells are incubated with 250 nM SDF-1α at 37° C. for 30 minutes. The cells are then subjected to an apoptosis induction using the mouse anti-CXCR4 antibody (12G5), as described above under item I. (a).

SDF-1α
Prevention of induction of CD95-independent apoptosis: can be prevented
